Results published in US6462064B1, “Apoptosis inducing adamantyl derivatives and their usage as anti-cancer agents, especially for cervical cancers and dysplasias” (Galderma Research & Development S.N.C., priority 1996, dated 2002).
“Also recorded” adds a separate entry of the source.

Tested on: cancer cells
Assay: List of active compounds: types of cancers and precancers active against
Format: cell-based
Text: As discussed, the adamantyl retinoid derivatives according to the invention which induce apoptosis are useful for treating many different types of cancers.

Row | SMILES | Types of Cancers and Precancers Active Against
1 | O=C(CC(=O)C12CC3CC(CC(C3)C1)C2)Nc1ccc(C(=O)O)cc1 [Compound 25, N-(4-carboxyphenyl)-3-(1-adamantyl)-3-oxopropionamide] | lymphoma
2 | COc1ccc(C(=O)Oc2ccc(C(=O)O)cc2F)cc1C12CC3CC(CC(C3)C1)C2 [Compound 21, 4-hydroxycarbonyl-2-fluorophenyl ester of 3-(1-adamantyl)-4-methoxybenzoic acid] | leukemia
3 | CC(=O)OCc1ccc(-c2ccc3cc(C(=O)O)ccc3c2)cc1C12CC3CC(CC(C3)C1)C2 [Compound 5, 6-[3-(1-adamantyl)-4-acetoxymethylphenyl]-2-naphthoic acid] | head and neck, leukemia, lung,; also recorded: lymphoma, myeloma, pancre-; also recorded: atic, skin
4 | COC(=O)c1ccc(C(=O)Nc2ccc(C(=O)O)cc2)cc1C12CC3CC(CC(C3)C1)C2 [Compound 35, N-4-carboxyphenyl 3-(1-adamantyl)-4-(methoxycarbonyl)benzamide] | leukemia, lymphoma, myeloma
5 | COC(=O)c1ccc2cc(-c3ccc(O)c(C45CC6CC(CC(C6)C4)C5)c3)ccc2c1 [Compound 17, 6-[3-(1-adamantyl)-4-hydroxyphenyl]-2-naphthoic acid methyl ester] | leukemia
6 | O=C(O)c1ccc2cc(-c3ccc(OCC(O)CO)c(C45CC6CC(CC(C6)C4)C5)c3)ccc2c1 (stereo not shown) [Compound 34, 6-[3-(1-adamantyl)-4-(2,3-dihydroxypropoxy)phenyl]-2-naphthoic acid] | leukemia, skin
7 | COc1cc(C)c(-c2ccc3cc(C(=O)O)ccc3c2)cc1C12CC3CC(CC(C3)C1)C2 [Compound 13, 6-[3-(1-adamantyl)-4-methoxy-6-methylphenyl]-2-naphthoic acid] | brain, head and neck, leukemia,; also recorded: pancreatic
8 | O=C(O)c1ccc2cc(-c3ccc(C(O)CO)c(C45CC6CC(CC(C6)C4)C5)c3)ccc2c1 (stereo not shown) [Compound 11, 6-[3-(1-adamantyl)-4-(1,2-dihydroxyethyl)phenyl]-2-naphthoic acid] | brain, breast, leukemia,; also recorded: pancreatic, skin
9 | NC(=O)c1ccc(-c2ccc3cc(C(=O)O)ccc3c2)cc1C12CC3CC(CC(C3)C1)C2 [Compound 24, 6-[3-(1-adamantyl)-4-aminocarbonylphenyl]-2-naphthoic acid] | leukemia, lymphoma
10 | COc1ccc(-c2ccc3cc(C(=O)O)ccc3c2)cc1C12CC3CC(CC(C)(C3)O1)C2 [Compound 40, 6-[3-(2-oxa-3-methyl-1-adamantyl)-4-methoxyphenyl]-2-naphthoic acid] | bladder, breast, kidney,; also recorded: leukemia, lung, lymphoma,; also recorded: ovarian, prostate, skin
11 | COc1ccc(C(O)COc2ccc(C(=O)O)c(O)c2)cc1C12CC3CC(CC(C3)C1)C2 (stereo not shown) [Compound 26, 2-hydroxy-4-{2-[3-(1-adamantyl)-4-methoxyphenyl]-2-hydroxyethoxy}benzoic acid] | lymphoma
12 | CC12CC3CC(C)(C1)CC(c1cc(-c4ccc5cc(C(=O)O)ccc5c4)cc4c1OCO4)(C3)C2 [Compound 43, 6-[3-(3,5-dimethyl-1-adamantyl)-4,5-methylenedioxyphenyl]-2-naphthoic acid] | prostate, breast, neuroblastoma
13 | Cc1cc(O)c(C23CC4CC(CC(C4)C2)C3)cc1-c1ccc2cc(C(=O)O)ccc2c1 [Compound 12, 6-[3-(1-adamantyl)-4-hydroxy-6-methylphenyl]-2-naphthoic acid] | head and neck, leukemia,; also recorded: pancreatic
